The values below come from patent US20250206732A1, “COMPOUNDS AND METHODS FOR THE TARGETED DEGRADATION OF KRAS” (Arvinas Operations, Inc., priority 2022, published 2025).

By Dmax is commonly meant the largest share of the target that was removed. A low value points to shallow degradation. One may read the DC50 as the concentration giving 50% degradation. A lower DC50 goes with a more potent degrader.

Structures are written as SMILES.

In this assay the target is T1, AsPC-1 HiBiT-KRASG12D (Homo sapiens, UniProt P01116, G12D).
T1 construct: insert the HiBiT tag onto the N-terminus of one or more of the endogenous KRAS alleles; endogenous in cells; host or cells: AsPC-1 (ATCC CRL-1682), CRISPR-Cas9 knock-in clone, one tagged allele
T1 sequence (P01116 1-188 isoform P01116-2 G12D): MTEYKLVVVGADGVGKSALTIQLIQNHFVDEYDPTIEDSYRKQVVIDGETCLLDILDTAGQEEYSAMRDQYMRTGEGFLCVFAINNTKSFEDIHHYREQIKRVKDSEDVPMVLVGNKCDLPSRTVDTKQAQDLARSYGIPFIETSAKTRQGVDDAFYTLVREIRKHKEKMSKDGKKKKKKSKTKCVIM
Kind of assay: HiBiT degradation assay (G12D), AsPC-1 HiBiT-KRASG12D cells. The settings on record: 24 hours treatment; for Dmax: ASPC1, AsPC-1 HiBiT-KRASG12D cells, maximum degradation observed; for DC50: AsPC-1 HiBiT-KRASG12D cells, HiBiT luminescence. The class given is cell-based. In short, it runs like this: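 In this degradation format, an engineered AsPC-1 clone with HiBiT fused to the KRAS N-terminus is exposed to compounds for 24 hours, after which remaining tagged protein is quantified by lytic HiBiT luminescence.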
For orientation: HiBiT is a short tag that completes a luciferase, so light tracks the accessible tagged protein.

`CCc1cccc2cc(O)cc(-c3ncc4c(N5CC6CCC(C5)N6)nc(OCCN5CCC[C@H](CN6CCN(c7cc([C@H](C(=O)N8C[C@H](O)C[C@H]8C(=O)N[C@@H](C)c8ccc(-c9scnc9C)cc8)C(C)C)on7)CC6)C5)nc4c3F)c12` [Compound 243, (2S,4R)-1-[(2R)-2-[3-[4-[(3R)-1-[2-[[4-(3,8-diazabicyclo[3.2.1]octan-3-yl)-7-(8-ethyl-3-hydroxy-1-naphthyl)-8-fluoro-pyrido[4,3-d]pyrimidin-2-yl]oxyethyl]-3-piperidyl]methyl]piperazin-1-yl]isoxazol-5-yl]-3-methyl-butanoyl]-4-hydroxy-N-[(1S)-1-[4-(4-methylthiazol-5-yl)phenyl]ethyl]pyrrolidine-2-carboxamide] displayed a Dmax of 80 to 100% and a half-maximal degradation concentration (DC50) of less than 600 nM.
As for `CCc1cccc2cc(O)cc(-c3ncc4c(N5CC6CCC(C5)N6)nc(OCCN5CCC(CN6CC(Oc7cc([C@H](C(=O)N8C[C@H](O)C[C@H]8C(=O)N[C@@H](C)c8ccc(-c9scnc9C)cc8)C(C)C)on7)C6)CC5)nc4c3F)c12` [Compound 244, (2S,4R)-1-[(2R)-2-[3-({1-[(1-{2-[(4-{3,8-diazabicyclo[3.2.1]octan-3-yl}-7-(8-ethyl-3-hydroxynaphthalen-1-yl)-8-fluoropyrido[4,3-d]pyrimidin-2-yl)oxy]ethyl}piperidin-4-yl)methyl]azetidin-3-yl}oxy)-1,2-oxazol-5-yl]-3-methylbutanoyl]-4-hydroxy-N-[(1S)-1-[4-(4-methyl-1,3-thiazol-5-yl)phenyl]ethyl] pyrrolidine-2-carboxamide], the Dmax lay in the range of 80 to 100% and the DC50 was less than 600 nM.
Turning to `CCc1cccc2cc(O)cc(-c3ncc4c(N5CC6CCC(C5)N6)nc(OCCN5CCC(CN6CC(Oc7cc([C@@H](C(=O)N8C[C@H](O)C[C@H]8C(=O)N[C@@H](C)c8ccc(-c9scnc9C)cc8)C(C)C)on7)C6)CC5)nc4c3F)c12` [Compound 245], the DC50 was greater than 3000 nM.
On to `CCc1cccc2cc(O)cc(-c3ncc4c(N5CC6CCC(C5)N6C=O)nc(OCCN5CCC(CC6CN(c7cc([C@H](C(=O)N8C[C@H](O)C[C@H]8C(=O)N[C@@H](C)c8ccc(-c9scnc9C)cc8)C(C)C)on7)C6)CC5)nc4c3F)c12` [Compound 246], for which the DC50 was greater than 3000 nM.
`CCc1cccc2cc(O)cc(-c3ncc4c(N5CC6CCC(C5)N6C=O)nc(OCCN5CCC(CC6CN(c7cc([C@@H](C(=O)N8C[C@H](O)C[C@H]8C(=O)N[C@@H](C)c8ccc(-c9scnc9C)cc8)C(C)C)on7)C6)CC5)nc4c3F)c12` [Compound 247] yielded a DC50 greater than 3000 nM.
The molecule `CCc1cccc2cc(O)cc(-c3ncc4c(N5CC6CCC(C5)N6)nc(OCCN5CCC(CCOc6cc([C@@H](C(=O)N7C[C@H](O)C[C@H]7C(=O)N[C@@H](C)c7ccc(-c8scnc8C)cc7)C(C)C)on6)CC5)nc4c3F)c12` [Compound 248] displayed a DC50 greater than 3000 nM.
In turn, `CCc1cccc2cc(O)cc(-c3ncc4c(N5CC6CCC(C5)N6)nc(OCCN5CCC(CCOc6cc([C@H](C(=O)N7C[C@H](O)C[C@H]7C(=O)N[C@@H](C)c7ccc(-c8scnc8C)cc7)C(C)C)on6)CC5)nc4c3F)c12` [Compound 249] came in with a Dmax of 80 to 100% and a DC50 of less than 600 nM.
On the same counts, the results for `CCc1cccc2cc(O)cc(-c3ncc4c(N5C[C@H]6CC[C@@H](C5)N6)nc(OC[C@@H]5CC[C@@H](COC(=O)N6CCC(Oc7cc([C@@H](C(=O)N8C[C@H](O)C[C@H]8C(=O)N[C@@H](C)c8ccc(-c9scnc9C)cc8)C(C)C)on7)CC6)N5C)nc4c3F)c12` [Compound 255, ((2S,5S)-5-(((4-((1R,5S)-3,8-diazabicyclo[3.2.1]octan-3-yl)-7-(8-ethyl-3-hydroxynaphthalen-1-yl)-8-fluoropyrido[4,3-d]pyrimidin-2-yl)oxy)methyl)-1-methylpyrrolidin-2-yl)methyl 4-((5-((S)-1-((2S,4R)-4-hydroxy-2-(((S)-1-(4-(4-methylthiazol-5-yl)phenyl)ethyl)carbamoyl)pyrrolidin-1-yl)-3-methyl-1-oxobutan-2-yl)isoxazol-3-yl)oxy)piperidine-1-carboxylate] are 20 to 60% and 600 to 1000 nM.
On to `CCc1cccc2cc(O)cc(-c3ncc4c(N5C[C@H]6CC[C@@H](C5)N6)nc(OC[C@@H]5CC[C@@H](COC(=O)N6CC7(C6)CN(c6cc([C@H](C(=O)N8C[C@H](O)C[C@H]8C(=O)N[C@@H](C)c8ccc(-c9scnc9C)cc8)C(C)C)on6)C7)N5C)nc4c3F)c12` [Compound 256, ((2S,5S)-5-(((4-((1R,5S)-3,8-diazabicyclo[3.2.1]octan-3-yl)-7-(8-ethyl-3-hydroxynaphthalen-1-yl)-8-fluoropyrido[4,3-d]pyrimidin-2-yl)oxy)methyl)-1-methylpyrrolidin-2-yl)methyl 6-(5-((R)-1-((2S,4R)-4-hydroxy-2-(((S)-1-(4-(4-methylthiazol-5-yl)phenyl)ethyl)carbamoyl)pyrrolidin-1-yl)-3-methyl-1-oxobutan-2-yl)isoxazol-3-yl)-2,6-diazaspiro[3.3]heptane-2-carboxylate], for which the Dmax fell in the range of 80 to 100% and the DC50 is less than 600 nM.
On the same counts, the results for `CCc1cccc2cc(O)cc(-c3ncc4c(N5CC6CCC(C5)N6)nc(OC[C@@H]5CC[C@H](COC(=O)N6CCN(c7cc([C@H](C(=O)N8C[C@H](O)C[C@H]8C(=O)N[C@@H](C)c8ccc(-c9scnc9C)cc8)C(C)C)on7)CC6)N5C)nc4c3F)c12` [Compound 259, [(2R,5S)-5-{[(4-{3,8-diazabicyclo[3.2.1]octan-3-yl}-7-(8-ethyl-3-hydroxynaphthalen-1-yl)-8-fluoropyrido[4,3-d]pyrimidin-2-yl)oxy]methyl}-1-methylpyrrolidin-2-yl]methyl 4-{5-[(2R)-1-[(2S,4R)-4-hydroxy-2-{[(1S)-1-[4-(4-methyl-1,3-thiazol-5-yl)phenyl]ethyl]carbamoyl}pyrrolidin-1-yl]-3-methyl-1-oxobutan-2-yl]-1,2-oxazol-3-yl}piperazine-1-carboxylate] are 80 to 100% and less than 600 nM.
`CCc1cccc2cc(O)cc(-c3ncc4c(N5CC6CCC(C5)N6)nc(OCCN5CCC(CC6(F)CCN(CC(=O)N[C@H](C(=O)N7C[C@H](O)C[C@H]7C(=O)N[C@@H](C)c7ccc(-c8scnc8C)cc7)C(C)(C)C)CC6)CC5)nc4c3F)c12` [Compound 260, (2S,4R)-1-[(2S)-2-(2-{4-[(1-{2-[(4-{3,8-diazabicyclo[3.2.1]octan-3-yl}-7-(8-ethyl-3-hydroxynaphthalen-1-yl)-8-fluoropyrido[4,3-d]pyrimidin-2-yl)oxy]ethyl}piperidin-4-yl)methyl]-4-fluoropiperidin-1-yl}acetamido)-3,3-dimethylbutanoyl]-4-hydroxy-N-[(1S)-1-[4-(4-methyl-1,3-thiazol-5-yl)phenyl]ethyl]pyrrolidine-2-carboxamide]: the Dmax was 80 to 100% and the DC50 was less than 600 nM.
On the same counts, the results for `CCc1cccc2cc(O)cc(-c3ncc4c(N5CC6CCC(C5)N6)nc(OC[C@@H]5CC[C@@H](COC(=O)N6CCN(c7cc([C@H](C(=O)N8C[C@H](O)C[C@H]8C(=O)N[C@@H](C)c8ccc(-c9scnc9C)cc8)C(C)C)on7)C[C@@H]6C)N5C)nc4c3F)c12` [Compound 261, [(2S,5S)-5-{[(4-{3,8-diazabicyclo[3.2.1]octan-3-yl}-7-(8-ethyl-3-hydroxynaphthalen-1-yl)-8-fluoropyrido[4,3-d]pyrimidin-2-yl)oxy]methyl}-1-methylpyrrolidin-2-yl]methyl (2S)-4-{5-[(2R)-1-[(2S,4R)-4-hydroxy-2-{[(1S)-1-[4-(4-methyl-1,3-thiazol-5-yl)phenyl]ethyl]carbamoyl}pyrrolidin-1-yl]-3-methyl-1-oxobutan-2-yl]-1,2-oxazol-3-yl}-2-methylpiperazine-1-carboxylate] are 80 to 100% and less than 600 nM.
For the molecule `CCc1cccc2cc(O)cc(-c3ncc4c(N5CC6CCC(C5)N6)nc(OCCN5CCC(F)(CN6CCN(c7cc([C@H](C(=O)N8C[C@H](O)C[C@H]8C(=O)N[C@@H](C)c8ccc(-c9scnc9C)cc8)C(C)C)on7)CC6)CC5)nc4c3F)c12` [Compound 262], the Dmax was 80 to 100% and the DC50 was less than 600 nM.
On the same counts, the results for `CCc1cccc2cc(O)cc(-c3ncc4c(N5CC6CCC(C5)N6)nc(OCCN5CCC(CC6(F)CN(CC(=O)N[C@H](C(=O)N7C[C@H](O)C[C@H]7C(=O)N[C@@H](C)c7ccc(-c8scnc8C)cc7)C(C)(C)C)C6)CC5)nc4c3F)c12` [Compound 263, (2S,4R)-1-[(2S)-2-(2-{3-[(1-{2-[(4-{3,8-diazabicyclo[3.2.1]octan-3-yl}-7-(8-ethyl-3-hydroxynaphthalen-1-yl)-8-fluoropyrido[4,3-d]pyrimidin-2-yl)oxy]ethyl}piperidin-4-yl)methyl]-3-fluoroazetidin-1-yl}acetamido)-3,3-dimethylbutanoyl]-4-hydroxy-N-[(1S)-1-[4-(4-methyl-1,3-thiazol-5-yl)phenyl]ethyl]pyrrolidine-2-carboxamide] are 80 to 100% and less than 600 nM.
On the same counts, the results for `CCc1cccc2cc(O)cc(-c3ncc4c(N5CCCCCC5)nc(OC[C@@H]5CC[C@@H](COC(=O)N6CCN(c7cc([C@H](C(=O)N8C[C@H](O)C[C@H]8C(=O)N[C@@H](C)c8ccc(-c9scnc9C)cc8)C(C)C)on7)CC6)N5C)nc4c3F)c12` [Compound 272, [(2S,5S)-5-[[4-(azepan-1-yl)-7-(8-ethyl-3-hydroxy-1-naphthyl)-8-fluoro-pyrido[4,3-d]pyrimidin-2-yl]oxymethyl]-1-methyl-pyrrolidin-2-yl]methyl 4-[5-[(1R)-1-[(2S,4R)-4-hydroxy-2-[[(1S)-1-[4-(4-methylthiazol-5-yl)phenyl]ethyl]carbamoyl]pyrrolidine-1-carbonyl]-2-methyl-propyl]isoxazol-3-yl]piperazine-1-carboxylate] are 60 to 80% and less than 600 nM.
